In patent publication US20230303513A1, “OXOPYRROLIDINE UREA FPR2 AGONISTS” (BRISTOL-MYERS SQUIBB COMPANY, priority 2020, published 2023):

Experiments:
human FPR2 = human FPR2 (Homo sapiens (Human), UniProt P25090); experiment: FPR2 cyclic adenosine monophosphate (cAMP) assay; type: cell-based; details: CHO cells overexpressing human FPR2; forskolin 5 μM, IBMX 200 μM; inhibition of cAMP production, HTRF; read-out: hFPR2 cAMP2 EC50
Description: (§1) N-formyl peptide receptors (FPRs) are a family of chemo attractant receptors that facilitate leukocyte response during inflammation. FPRs belong to the seven-transmembrane G protein-coupled receptor superfamily and are linked to inhibitory G-proteins (Gi). Three family members (FPR1, FPR2 and FPR3) have been identified in humans and are predominantly found in myeloid cells with varied distribution and have also been reported in multiple organs and tissues. After agonist binding, the FPRs activate a multitude of physiological pathways, such as intra cellular signaling transduction, Ca^21 mobilization and transcription. The family interacts with a diverse set of ligands that includes proteins, polypeptides and fatty acid metabolites which activate both pro-inflammatory and pro-resolution downstream responses. FPR2 and FPR1 Cyclic Adenosine Monophosphate (cAMP) Assays were used to measure the activity of the compounds in this patent.
(§2) FPR2 and FPR1 Cyclic Adenosine Monophosphate (cAMP) Assays. A mixture of forskolin (5 μM final for FPR2 or 10 μM final for FPR1) and IBMX (200 μM final) were added to 384-well Proxiplates (Perkin-Elmer) pre-dotted with test compounds in DMSO (1% final) at final concentrations in the range of 0.020 nM to 100 μM. Chinese Hamster Ovary cells (CHO) overexpressing human FPR1 or human FPR2 receptors were cultured in F-12 (Ham's) medium supplemented with 10% qualified FBS, 250 μg/ml zeocin and 300 μg/ml hygromycin (Life Technologies). Reactions were initiated by adding 2,000 human FPR2 cells per well or 4,000 human FPR1 cells per well in Dulbecco's PBS (with calcium and magnesium) (Life Technologies) supplemented with 0.1% BSA (Perkin-Elmer). The reaction mixtures were incubated for 30 min at room temperature. The level of intracellular cAMP was determined using the HTRF HiRange cAMP assay reagent kit (Cisbio) according to manufacturer's instruction. Solutions of cryptate conjugated anti-cAMP and d2 flurorophore-labelled cAMP were made in a supplied lysis buffer separately. Upon completion of the reaction, the cells were lysed with equal volume of the d2-cAMP solution and anti-cAMP solution. After a 1-h room temperature incubation, time-resolved fluorescence intensity was measured using the Envision (Perkin-Elmer) at 400 nm excitation and dual emission at 590 nm and 665 nm. A calibration curve was constructed with an external cAMP standard at concentrations ranging from 1 μM to 0.1 μM by plotting the fluorescent intensity ratio from 665 nm emission to the intensity from the 590 nm emission against cAMP concentrations. The potency and activity of a compound to inhibit cAMP production was then determined by fitting to a 4-parametric logistic equation from a plot of cAMP level versus compound concentrations.

human FPR1 = human FPR1 (Homo sapiens (Human), UniProt P21462); experiment: FPR1 cyclic adenosine monophosphate (cAMP) assay; type: cell-based; details: CHO cells overexpressing human FPR1; forskolin 10 μM, IBMX 200 μM; inhibition of cAMP production, HTRF; read-out: hFPR1 cAMP EC50
Description: as §1, §2

Chain of human FPR2 (P25090 whole entry): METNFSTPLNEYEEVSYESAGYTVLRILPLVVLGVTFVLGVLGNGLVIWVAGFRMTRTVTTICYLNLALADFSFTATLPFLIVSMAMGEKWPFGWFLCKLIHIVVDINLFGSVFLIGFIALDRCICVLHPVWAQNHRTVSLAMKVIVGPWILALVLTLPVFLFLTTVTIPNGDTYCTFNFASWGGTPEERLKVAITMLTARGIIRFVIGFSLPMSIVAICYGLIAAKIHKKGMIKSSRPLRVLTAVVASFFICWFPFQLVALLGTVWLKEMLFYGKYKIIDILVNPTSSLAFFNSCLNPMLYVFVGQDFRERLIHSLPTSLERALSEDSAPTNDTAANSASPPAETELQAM
Chain of human FPR1 (P21462 whole entry): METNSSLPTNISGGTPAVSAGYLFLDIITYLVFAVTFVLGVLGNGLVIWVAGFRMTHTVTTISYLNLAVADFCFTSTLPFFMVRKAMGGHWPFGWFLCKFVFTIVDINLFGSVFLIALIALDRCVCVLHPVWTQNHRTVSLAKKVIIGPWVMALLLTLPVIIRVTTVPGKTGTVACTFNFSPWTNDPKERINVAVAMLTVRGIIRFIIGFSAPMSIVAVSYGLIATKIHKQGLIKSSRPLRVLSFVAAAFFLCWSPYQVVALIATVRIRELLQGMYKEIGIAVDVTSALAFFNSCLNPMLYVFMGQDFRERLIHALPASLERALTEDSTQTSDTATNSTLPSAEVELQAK

Row | SMILES | EC50 (human FPR2) | EC50 (human FPR1)
1 | COc1cc(F)c([C@H]2[C@H](NC(=O)NC3CCc4cc(OC)ccc4C3)C(=O)N(c3cccn(CCO)c3=O)[C@H]2C)c(F)c1 (single isomer, unassigned) [Example 89] | 7.1 nM | 4.3 nM
2 | COCCn1cccc(N2C[C@@H](c3c(F)cc(OC)cc3F)[C@H](NC(=O)NC3CCc4cc(OC)ccc4C3(C)C)C2=O)c1=O (some centres unmarked) [Example 45] | 6.7 nM | 562 nM
3 | COCCn1cccc(N2C[C@@H](c3ccc(OC)cc3)[C@H](NC(=O)NC3CCc4cc(OC)ccc4C3)C2=O)c1=O (some centres unmarked) [Example 11] | 0.8 nM | 0.1 nM
4 | COc1cc(F)c([C@@H]2CN(c3nccc(NC4CCOC4)c3C(F)(F)F)C(=O)[C@H]2NC(=O)N[C@H]2CC[C@H](C(F)F)CC2)c(F)c1 (single isomer, unassigned) [Example 100] | 9 nM | > 10000 nM
5 | COc1cc(F)c([C@H]2[C@H](NC(=O)N[C@H]3CC[C@H](C(F)F)CC3)C(=O)N(c3cccn(CCO)c3=O)[C@H]2C)c(F)c1 [Example 71] | 54 nM | 1100 nM
6 | COc1cc(F)c([C@H]2[C@H](NC(=O)N[C@H]3CC[C@H](C(F)F)CC3)C(=O)N(c3ncccc3OC(C)C)[C@H]2C)c(F)c1 [Example 51] | 12 nM | 77 nM
7 | COc1cc(F)c([C@@H]2CN(c3ncccc3C(F)(F)F)C(=O)[C@H]2NC(=O)NC2COc3cc(OC)ccc3C2)c(F)c1 (some centres unmarked) [Example 28] | 3.3 nM | 3 nM
8 | COc1cc(F)c([C@@H]2CN(c3cccn(CC(O)C(F)(F)F)c3=O)C(=O)[C@H]2NC(=O)NC2CCc3cc(OC)ccc3C2)c(F)c1 (single isomer, unassigned) [Example 78] | 50 nM | 100 nM
9 | COc1cc(F)c([C@@H]2CN(c3nccc(N4C[C@@H](C)N(C)[C@@H](C)C4)c3C(F)(F)F)C(=O)[C@H]2NC(=O)N[C@H]2CC[C@H](C(F)F)CC2)c(F)c1 [Example 25] | 2.8 nM | 1630 nM
10 | COCCn1cccc(N2C[C@@H](c3ccc(OC)cc3)[C@H](NC(=O)NC3CCc4cc(Cl)ccc4C3)C2=O)c1=O (some centres unmarked) [Example 16] | 1.7 nM | 4.7 nM
11 | CNC(=O)C(C)Nc1ccnc(N2C[C@@H](c3c(F)cc(OC)cc3F)[C@H](NC(=O)N[C@H]3CC[C@H](C(F)F)CC3)C2=O)c1C(F)(F)F (single isomer, unassigned) [Example 75] | 21 nM | > 1000 nM
12 | COCCn1cccc(N2C(=O)[C@@H](NC(=O)NC3CCc4cc(OC)ccc4C3)[C@H](c3c(F)cc(OC)cc3F)[C@@H]2C)c1=O (some centres unmarked) [Example 29] | 3.3 nM | 2.4 nM
13 | COc1cc(F)c([C@@H]2CN(c3cccn(CCO)c3=O)C(=O)[C@H]2NC(=O)N[C@H]2CC[C@H](C(F)F)CC2)c(F)c1 [Example 65] | 55 nM | 5000 nM
14 | COc1cc(F)c([C@@H]2CN(c3nccc(N4CCN(C)CC4)c3C(F)(F)F)C(=O)[C@H]2NC(=O)N[C@H]2CC[C@H](C(F)F)CC2)c(F)c1 [Example 30] | 3.6 nM | 2500 nM
15 | COc1cc(F)c([C@@H]2CN(c3nccc(NCC(C)(C)O)c3C(F)(F)F)C(=O)[C@H]2NC(=O)N[C@H]2CC[C@H](C(F)F)CC2)c(F)c1 [Example 104] | 39 nM | 5000 nM
16 | CCn1cccc(N2C[C@@H](c3c(F)cc(OC)cc3F)[C@H](NC(=O)NC3CCc4cc(OC)ccc4C3)C2=O)c1=O (some centres unmarked) [Example 41] | 5.6 nM | 0.5 nM
17 | COc1cc(F)c([C@@H]2CN(c3c(C)ccn(CCO)c3=O)C(=O)[C@H]2NC(=O)NC2CCc3cc(OC)ccc3C2)c(F)c1 (single isomer, unassigned) [Example 83] | 1 nM | 12 nM
18 | COc1cc(F)c([C@H]2[C@H](NC(=O)NC3CCc4cc(OC)ccc4C3(C)C)C(=O)N(c3ncccc3C(F)(F)F)[C@H]2C)c(F)c1 (some centres unmarked) [Example 59] | 29 nM | 470 nM
19 | COCCn1cccc(N2C(=O)[C@@H](NC(=O)NC3CCc4cc(OC)ccc4C3(C)C)[C@H](c3c(F)cc(OC)cc3F)[C@@H]2C)c1=O (some centres unmarked) [Example 40] | 5.3 nM | 200 nM

Row | SMILES | EC50 (human FPR2) | EC50 (human FPR1)
20 | CCn1cccc(N2C[C@@H](c3c(F)cc(OC)cc3F)[C@H](NC(=O)NC3CCc4cc(OC)ccc4C3)C2=O)c1=O (some centres unmarked) [Example 37] | 4.5 nM | 11 nM
21 | COc1cc(F)c([C@@H]2CN(c3ncccc3C(F)(F)F)C(=O)[C@H]2NC(=O)NC2CCc3cc(OC)ccc3C2)c(F)c1 (some centres unmarked) [Example 64] | 53 nM | 54 nM
22 | CCn1cccc(N2C[C@@H](c3ccc(OC)cc3)[C@H](NC(=O)NC3CCc4cc(OC)ccc4C3)C2=O)c1=O (some centres unmarked) [Example 12] | 0.9 nM | 0.8 nM
23 | COc1cc(F)c([C@@H]2CN(c3nccc(NCC4CCOC4)c3C(F)(F)F)C(=O)[C@H]2NC(=O)N[C@H]2CC[C@H](C(F)F)CC2)c(F)c1 (single isomer, unassigned) [Example 73] | 320 nM | > 1000 nM
24 | COc1cc(F)c([C@@H]2CN(c3cccn(C(F)F)c3=O)C(=O)[C@H]2NC(=O)NC2CCc3cc(OC)ccc3C2)c(F)c1 (single isomer, unassigned) [Example 94] | 1.6 nM | 1.2 nM
25 | COc1cc(F)c([C@@H]2CN(c3cccn(CC(O)C(F)(F)F)c3=O)C(=O)[C@H]2NC(=O)NC2CCc3cc(OC)ccc3C2)c(F)c1 (single isomer, unassigned) [Example 77] | 15 nM | –
26 | COc1cc(F)c([C@@H]2CN(c3cccn(CCO)c3=O)C(=O)[C@H]2NC(=O)NC2CCc3cc(OC)ccc3C2)c(F)c1 (some centres unmarked) [Example 21] | 1.5 nM | 0.4 nM
27 | COCCn1cccc(N2C[C@@H](c3c(F)cc(OC)cc3F)[C@H](NC(=O)NC3CCc4cc(OC)ccc4C3(C)C)C2=O)c1=O (some centres unmarked) [Example 54] | 19 nM | 8.8 nM
28 | COCCn1cccc(N2C[C@@H](c3ccc(OC)cc3)[C@H](NC(=O)NC3CCc4cc(OC)ccc4C3)C2=O)c1=O (some centres unmarked) [Example 42] | 5.8 nM | 1.7 nM
29 | CCn1cccc(N2C[C@@H](c3c(F)cc(OC)cc3F)[C@H](NC(=O)NC3CCc4cc(OC)ccc4C3(C)C)C2=O)c1=O (some centres unmarked) [Example 52] | 13 nM | 593 nM
30 | COc1cc(F)c([C@@H]2CN(c3nccc(N4CCOCC4)c3C(F)(F)F)C(=O)C2NC(=O)N[C@H]2CC[C@H](C(F)F)CC2)c(F)c1 (stereo partly drawn) [Example 1, 1-((3S,4R)-4-(2,6-Difluoro-4-methoxyphenyl)-1-(4-morpholino-3-(trifluoromethyl)pyridin-2-yl)-2-oxopyrrolidin-3-yl)-3-((1r,4S)-4-(difluoromethyl)cyclohexyl) urea] | 14.8 nM | 6800 nM
31 | COc1cc(F)c([C@@H]2CN(c3nccc(NCC4CCOC4)c3C(F)(F)F)C(=O)[C@H]2NC(=O)N[C@H]2CC[C@H](C(F)F)CC2)c(F)c1 (single isomer, unassigned) [Example 74] | 26 nM | > 1000 nM
32 | COc1cc(F)c([C@@H]2CN(c3nccc(N4CCC(C)(O)C4)c3C(F)(F)F)C(=O)[C@H]2NC(=O)N[C@H]2CC[C@H](C(F)F)CC2)c(F)c1 (single isomer, unassigned) [Example 91] | 7.7 nM | 780 nM
33 | COc1cc(F)c([C@@H]2CN(c3nccc(NCCS(C)(=O)=O)c3C(F)(F)F)C(=O)[C@H]2NC(=O)N[C@H]2CC[C@H](C(F)F)CC2)c(F)c1 [Example 98] | 7.2 nM | > 5000 nM
34 | COCCn1cccc(N2C[C@@H](c3c(F)cc(OC)cc3F)[C@H](NC(=O)NC3CCc4cc(OC)ccc4C3)C2=O)c1=O (some centres unmarked) [Example 34] | 4.2 nM | 0.3 nM
35 | COCCn1cccc(N2C(=O)[C@@H](NC(=O)NC3CCc4cc(OC)ccc4C3)[C@H](c3c(F)cc(OC)cc3F)[C@@H]2C)c1=O (some centres unmarked) [Example 26] | 2.8 nM | –
36 | COCCn1cccc(N2C[C@@H](c3ccc(OC)cc3)[C@H](NC(=O)NC3CCc4cc(Cl)ccc4C3)C2=O)c1=O (some centres unmarked) [Example 5] | 0.2 nM | –
37 | CCn1cccc(N2C[C@@H](c3ccc(OC)cc3)[C@H](NC(=O)NC3CCc4cc(OC)ccc4C3)C2=O)c1=O (some centres unmarked) [Example 13] | 1.3 nM | –
38 | COc1cc(F)c([C@@H]2CN(c3cccn(CC(O)C(F)(F)F)c3=O)C(=O)[C@H]2NC(=O)NC2CCc3cc(OC)ccc3C2)c(F)c1 (some centres unmarked) [Example 79] | 7.3 nM | –
